Test results from patent US20150133434A1, “Compositions and Methods for Reactivating Latent Immunodeficiency Virus” (priority 2012, published 2015).
“Also recorded” adds a separate entry of the source.

What was measured:
[1] = system: latent HIV (clone R7/E-/GFP) in Jurkat T cells; assay: Reactivation of latent HIV in polyclonal Jurkat T cells (clone R7/E-/GFP), flow cytometry of GFP; format: cell-based, HIV-1; conditions: compound alone, increasing amounts
Method: A polyclonal population of Jurkat T cells containing latent HIV (clone R7/E-/GFP) was treated with increasing amounts of JQ1. This viral clone contains a frameshift mutation in the viral Env gene to prevent viral spread and expresses GFP in the Nef open reading frame, which allows separation of actively infected GFP^+ from GFP^− cells by cell sorting. GFP^− cells, which are mostly uninfected but contain a small fraction of latently infected cells with silenced HIV transcription, were treated with JQ1. Activation of transcription was measured by flow cytometry of GFP. […] Stimulation of cells with JQ1 produced up to fivefold more GFP-expressing cells than control-treated cells.
HIV clones R7/E-/GFP and NL4-3/E-/GFP-IRES-nef were derived from pR7-GFP and pNLENG1-EGFP by mutating the Env gene by inserting an early stop codon in the NdeI site. […]. Jurkat cells were spininfected with 25 ng of p24 per 10^6 cells, and GFP^− cells where collected in two rounds of cell sorting 5 and 15 days after infection. The expanded population of GFP^− cells, composed of uninfected and latently infected cells, was seeded in 96-well plates and treated with the indicated concentration of drugs in duplicates. The percentage of GFP^+ cells was detected after 24 h at the MACSQuant VYB FACS analyzer. Data are expressed as the mean percentage of GFP^+ cells, subtracting the average percentage of spontaneous GFP-reactivation in the untreated samples. (A) Jurkat cells containing latent R7/E-/GFP virus were treated with JQ1 or (R)-JQ1 in combination with Prostratin (0.5 μM), SAHA (2.5 μM), TNFα (1 ng/μl), or control at the indicated concentrations for 18 h, followed by flow cytometry analysis. […] Results represent average of two independent experiments. All treatments in (A) and (B) on the X axis are in μM.

[2] = system: latent LTR-GFP construct in J-Lat A72 cells; assay: J-Lat A72 cells (LTR-GFP lacking Tat), flow cytometry of GFP; format: cell-based, HIV-1; conditions: 18 h
Method: (§1) HEK293T and Jurkat cells were obtained from the American Type Culture Collection. J-Lat (clones A2 and A72) cell lines were described. HEK293T cells were cultured in DMEM supplemented with 10% FBS, 1% L-glutamine and 1% penicillin-streptomycin (Life Technologies). Jurkat and J-Lat cells were cultured in RPMI supplemented with 10% FBS, 1% L-glutamine, and 1% penicillin-streptomycin. TNFα (Sigma-Aldrich) was used at concentrations of 0.25 or 1 ng/ml. Human αCD3 and αCD28 (BD Biosciences) were used at concentrations of 3 and 1 μg/ml, respectively. Prostratin (Sigma) was used at a suboptimal concentration of 0.5 μM, and SAHA (NCI Chemical Carcinogen Repository, Midwest Research Institute) was used at 2.5 μM.
(§2) To determine if BET inhibition specifically activates Tat-dependent transcription, a J-Lat cell line was utilized that harbored a latent lentiviral construct expressing Tat with GFP from the HIV LTR (clone A2; LTR-Tat-IRES-GFP). […] Stimulation with JQ1 yielded up to ninefold more GFP-expressing cells than control-treated cells, and a 22-fold increase was observed when cells were co-treated with JQ1 and low doses of TNFα (FIG. 21A). […] Here, an up to 22-fold increase in GFP^+ cells resulted from JQ1 treatment alone and a 45-fold increase when TNFα was added with JQ1 (FIG. 21B). Both cell lines were also treated with prostratin and SAHA (FIG. 27).
(§3) Two latent J-Lat cell lines A2 (containing a LTR-Tat-IRES-GFP construct) or A72 (containing a LTR-GFP construct) were treated with JQ1 or (R)-JQ1 in combination with TNFα or control at the indicated concentrations for 18 h, followed by flow cytometry analysis. […] Data represent average (±SD) of three independent experiments. All treatments in (A) and (B) on the X axis are in μM.

[3] = system: latent LTR-Tat-IRES-GFP construct in J-Lat A2 cells; assay: J-Lat A2 cells (LTR-Tat-IRES-GFP), flow cytometry of GFP; format: cell-based, HIV-1; conditions: 18 h
Method: as §1, §2, §3

[4] = system: HIV LTR-luciferase reporter (Tat transactivation); assay: Tat transactivation of the HIV promoter, LTR-luciferase in Jurkat 1G5-Tat cells; format: cell-based; conditions: 1G5-Tat clonal cell lines
Method: Compounds that specifically bind to the bromodomain of PCAF in vitro were tested in an in vivo assay that measures the transactivation of the HIV promoter by Tat. The Jurkat 1G5 cells contain a stably integrated and silent HIV LTR-luciferase reporter construct. These cells were infected with an HIV-based retroviral vector expressing a 101-amino acids Tat (Tat2ex), generating the 1G5-Tat cells. Introduction of Tat protein activates HIV transcription and produces a stable increase in luciferase activity. Clonal cell lines were derived from the original population and have characterized them in terms of luciferase expression and response to Tat inhibitors. Luciferase expression is stable over time in each clone and is inhibited by more than 80% in response to DRB, a known inhibitor of CDK9 kinase activity and Tat transactivation.
Compounds were tested by incubating them at various concentrations ranging from 1.25 to 40 μM on either 1G5 cells, to test for effects on the HIV LTR, or on 1G5-Tat cells to test for effects on Tat-induced HIV transcription. After 24 hr, cells were harvested and processed for luciferase activity measurement.

[5] = system: latent HIV-1 in Bcl-2-transduced resting CD4+ T cells; format: cell-based; conditions: 24-72 h, average of two donors
[6] = system: latent DHIV-GFP, X4 virus in nonpolarized T helper cells; assay: Primary T-cell model of latency, ex vivo differentiated nonpolarized CD4+ T cells; format: cell-based, HIV-1; conditions: 96 h after compound addition; minor effect only at highest doses

SMILES | reactivation of HIV-1 (GFP+ cells) [1] | activation of HIV transcription (GFP) [2] | activation of HIV transcription (GFP) [3] | inhibition of luciferase expression [4] | activation of HIV transcription (GFP) ([2]; listed as I-BET151) | reactivation of latent HIV-1 relative to costimulation with αCD3 and αCD28 antibodies [5] | activation of HIV transcription (GFP) ([3]; listed as I-BET151) | reversal of latency (GFP) [6]
Cc1sc2c(c1C)C(c1ccc(Cl)cc1)=N[C@H](CC(=O)OC(C)(C)C)c1nnc(C)n1-2 [(R)-JQ1] | not | did not activate the integrated HIV promoter | inactive and not and did not activate the integrated HIV promoter | – | – | – | – | –
OC[C@H]1O[C@@H](n2cnc3cc(Cl)c(Cl)cc32)[C@H](O)[C@@H]1O [DRB] | – | – | – | more than 80% | – | – | – | –
COc1cc2c(cc1-c1c(C)noc1C)ncc1[nH]c(=O)n([C@H](C)c3ccccn3)c12 [I-Bet151, 7-(3,5-dimethylisoxazol-4-yl)-8-methoxy-1-((R)-1-(pyridin-2-yl)ethyl)-1H-imidazo[4,5-c]quinolin-2(3H)-one] | – | effectively activated HIV from latency | effectively activated HIV from latency | – | increased GFP expression | same activation | increased GFP expression | –
COC(=O)C[C@@H]1N=C(c2ccc(Cl)cc2)c2c(sc(C)c2C)-n2c(C)nnc21 [MS417, Methyl 2-((6S)-4-(4-chlorophenyl)-2,3,9-trimethyl-6H-thieno[3,2-f][1,2,4]triazolo[4,3-a][1,4]diazepin-6-yl)acetate] | – | effectively activated HIV from latency; also recorded: increased GFP expression | effectively activated HIV from latency; also recorded: increased GFP expression | – | – | same activation | – | minor activatory effect
O=C(CCCCCCC(=O)Nc1ccccc1)NO [SAHA, suberoylanilidehydroxamic acid] | – | – | – | – | – | – | – | resistant to reactivation
